Reference: patent US9861616B2, “Methods for treating respiratory diseases and formulations therefor” (priority 2013, dated 2018)
In brackets after ≈: the same amount, converted by molar mass.

Key:
[1] = tested on: P. aeruginosa PA12; assay: MIC by microdilution with PaβN or EGTA, clinical isolate overexpressing efflux pumps; format: cell-based; details: Pseudomonas aeruginosa
Procedure, shortened: (§1)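 Microdilution MICs against P. aeruginosa, including reference PAO1 and efflux-overexpressing clinical PA12, in cation-adjusted Mueller-Hinton broth or RPMI with 10% fetal calf serum, or MH broth with increasing serum. PaβN (50 mg/L) served as efflux inhibitor and EGTA (5 mM) as outer-membrane disruptor.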

[2] = tested on: MRSA strains from CF patients; assay: Microdilution MICs against 40 MRSA strains from CF patients; format: cell-based, S. aureus; details: Staphylococcus aureus, 40 MRSA strains from CF patients
[3] = tested on: TNFα release; assay: LPS-induced TNFα release in PMA-differentiated U937 cells (ELISA); format: cell-based, human
Procedure, shortened: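 U937 cells differentiated to macrophage-like state with PMA (50 ng/mL, 48 h) in RPMI/10% FBS, then stimulated with LPS in presence of macrolides. TNFα in supernatant measured by sandwich ELISA; means±SEM of three experiments, IC50 computed from cytokine inhibition.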

[4] = tested on: P. aeruginosa (PA); assay: MIC by microdilution, 36 clinical and laboratory strains with known efflux phenotype; format: cell-based
Procedure, shortened: as §1

`CC[C@H]1OC(=O)[C@H](C)[C@@H](O[C@H]2C[C@@](C)(OC)[C@@H](O)[C@H](C)O2)[C@H](C)[C@@H](O[C@@H]2O[C@H](C)C[C@H](N(C)C)[C@H]2O)[C@](C)(OC)C[C@@H](C)C(=O)[C@H](C)[C@@H](O)[C@]1(C)O` [CLR, clarithromycin] showed an MIC ([1]; PA12, PA12, CA-MHB, PaβN 50 mg/L) of 16 µg/mL (≈ 21.4 µM), an MIC ([1]; PA12, PA12, CA-MHB, control conditions (CT)) of 512 µg/mL (≈ 685 µM) and an MIC ([1]; PA12, PA12, RPMI, EGTA 5 mM) of 2 µg/mL (≈ 2.67 µM). The MIC ([1]; PA12, PA12, RPMI, PaβN 50 mg/L) was 16 µg/mL (≈ 21.4 µM), the MIC ([1]; PA12, PA12, RPMI, control conditions (CT)) was 16 µg/mL (≈ 21.4 µM) and the MIC50 ([2]; read-out: MIC50) was no less than 32 µg/mL. For the same compound, the MIC90 ([2]; read-out: MIC90) was no less than 32 µg/mL, the IC50 ([3]; PMA-differentiated U937 cells, read-out: IC50, LPS-induced TNFα release) was 426 µM and the “effect on TNFα production” value ([3]; at a higher concentration (333 μM)) was “modest effects”. It also gave an MIC ([4]; strain 1, efflux AB+, MHB) of 512 µg/mL (≈ 685 µM), an MIC ([4]; strain 1, efflux AB+, RPMI) of 32 µg/mL (≈ 42.8 µM) and an MIC ([4]; strain 2, efflux CD+, MHB) of 512 µg/mL (≈ 685 µM). For the same compound, the MIC ([4]; strain 2, efflux CD+, RPMI) was 128 µg/mL (≈ 171 µM), the MIC ([4]; strain 3, efflux EF+, RPMI) was 16 µg/mL (≈ 21.4 µM) and the MIC ([4]; strain 4, efflux XY+, MHB) was 512 µg/mL (≈ 685 µM). The MIC ([4]; strain 4, efflux XY+, RPMI) was 32 µg/mL (≈ 42.8 µM), the MIC ([4]; strain 11, efflux AB + CD+, MHB) was 512 µg/mL and the MIC ([4]; strain 11, efflux AB + CD+, RPMI) was 16 µg/mL. It also gave an MIC ([4]; strain 12, efflux AB + CD + EF + XY+, MHB) of 512 µg/mL, an MIC ([4]; strain 12, efflux AB + CD + EF + XY+, RPMI) of 16 µg/mL and an MIC ([4]; strain 16, efflux AB + XY+, MHB) of 512 µg/mL. It also gave an MIC ([4]; strain 16, efflux AB + XY+, RPMI) of 64 µg/mL, an MIC ([4]; strain 21, efflux AB+, MHB) of 512 µg/mL (≈ 685 µM) and an MIC ([4]; strain 21, efflux AB+, RPMI) of 64 µg/mL (≈ 85.6 µM). It also gave an MIC ([4]; strain 22, efflux XY+, MHB) of 512 µg/mL (≈ 685 µM), an MIC ([4]; strain 22, efflux XY+, RPMI) of 32 µg/mL (≈ 42.8 µM) and an MIC ([4]; strain 40, efflux EF+, RPMI) of 16 µg/mL (≈ 21.4 µM). The MIC ([4]; strain 41, efflux CD+, MHB) was 512 µg/mL (≈ 685 µM), the MIC ([4]; strain 41, efflux CD+, RPMI) was 64 µg/mL (≈ 85.6 µM) and the MIC ([4]; strain 48, efflux CD + EF + XY+, MHB) was 512 µg/mL. The MIC ([4]; strain 48, efflux CD + EF + XY+, RPMI) was 64 µg/mL, the MIC ([4]; strain 49, efflux CD + EF + XY+, MHB) was 512 µg/mL and the MIC ([4]; strain 49, efflux CD + EF + XY+, RPMI) was 32 µg/mL. For the same compound, the MIC ([4]; strain 63, efflux AB + EF + XY+, MHB) was 512 µg/mL, the MIC ([4]; strain 63, efflux AB + EF + XY+, RPMI) was 32 µg/mL and the MIC ([4]; strain 68, efflux AB + XY+, MHB) was 512 µg/mL. For the same compound, the MIC ([4]; strain 68, efflux AB + XY+, RPMI) was 64 µg/mL, the MIC ([4]; strain 133, efflux EF + XY+, MHB) was 512 µg/mL and the MIC ([4]; strain 133, efflux EF + XY+, RPMI) was 64 µg/mL. It also gave an MIC ([4]; strain 156, efflux EF + XY+, MHB) of 512 µg/mL, an MIC ([4]; strain 156, efflux EF + XY+, RPMI) of 32 µg/mL and an MIC ([4]; strain 168B, efflux CD + XY+, MHB) of 512 µg/mL. For the same compound, the MIC ([4]; strain 207, efflux AB + EF + XY+, MHB) was 512 µg/mL, the MIC ([4]; strain 207, efflux AB + EF + XY+, RPMI) was 64 µg/mL and the MIC ([4]; strain 266B, efflux AB + CD+, MHB) was 512 µg/mL. It also gave an MIC ([4]; strain 266B, efflux AB + CD+, RPMI) of 64 µg/mL, an MIC ([4]; strain 333A, efflux AB + EF+, MHB) of 512 µg/mL and an MIC ([4]; strain 333A, efflux AB + EF+, RPMI) of 64 µg/mL. It also gave an MIC ([4]; strain 335, efflux AB + EF+, MHB) of 512 µg/mL, an MIC ([4]; strain 335, efflux AB + EF+, RPMI) of 64 µg/mL and an MIC ([4]; strain 391, efflux EF−, RPMI) of 16 µg/mL (≈ 21.4 µM). The MIC ([4]; strain 392, efflux CD−, RPMI) was 16 µg/mL (≈ 21.4 µM), the MIC ([4]; strain 394, efflux XY−, MHB) was 512 µg/mL (≈ 685 µM) and the MIC ([4]; strain 394, efflux XY−, RPMI) was 32 µg/mL (≈ 42.8 µM). It also gave an MIC ([4]; strain 395, efflux HI−, RPMI) of 32 µg/mL (≈ 42.8 µM), an MIC ([4]; strain 396, ompH−, MHB) of 64 µg/mL (≈ 85.6 µM) and an MIC ([4]; strain 396, ompH−, RPMI) of 16 µg/mL (≈ 21.4 µM). The MIC ([4]; strain 397, efflux AB−, MHB) was 16 µg/mL (≈ 21.4 µM), the MIC ([4]; strain 397, efflux AB−, RPMI) was 2 µg/mL (≈ 2.67 µM) and the MIC ([4]; strain 398, efflux CD−, MHB) was 32 µg/mL (≈ 42.8 µM). For the same compound, the MIC ([4]; strain 398, efflux CD−, RPMI) was 4 µg/mL (≈ 5.35 µM), the MIC ([4]; strain 399, efflux AB − EF−, MHB) was 16 µg/mL (≈ 21.4 µM) and the MIC ([4]; strain 399, efflux AB − EF−, RPMI) was 4 µg/mL (≈ 5.35 µM). For the same compound, the MIC ([4]; strain 400, efflux XY−, MHB) was 16 µg/mL (≈ 21.4 µM), the MIC ([4]; strain 400, efflux XY−, RPMI) was 4 µg/mL (≈ 5.35 µM) and the MIC ([4]; strain 401, ompH−, MHB) was 8 µg/mL (≈ 10.7 µM). For the same compound, the MIC ([4]; strain 401, ompH−, RPMI) was 2 µg/mL (≈ 2.67 µM), the MIC ([4]; strain 403, efflux AB − CD − EF − XY−, MHB) was 16 µg/mL (≈ 21.4 µM) and the MIC ([4]; strain 403, efflux AB − CD − EF − XY−, RPMI) was 4 µg/mL (≈ 5.35 µM). The MIC ([4]; strain 405, efflux AB − CD − EF − XY−, MHB) was 8 µg/mL (≈ 10.7 µM), the MIC ([4]; strain 405, efflux AB − CD − EF − XY−, RPMI) was 4 µg/mL (≈ 5.35 µM) and the MIC ([4]; strain 434, efflux AB + CD + XY+, MHB) was 512 µg/mL. For the same compound, the MIC ([4]; strain 434, efflux AB + CD + XY+, RPMI) was 128 µg/mL, the MIC ([4]; strain PAO1, REFERENCE, MHB) was 512 µg/mL (≈ 685 µM) and the MIC ([4]; strain PAO1, REFERENCE, RPMI) was 32 µg/mL (≈ 42.8 µM).
